Results from US20110186731A1, “LCMS TECHNOLOGY AND ITS USES” (priority 2008, published 2011).
Entries after “also recorded” stand apart in the source; their conditions may differ. Like-named read-outs stand apart in the source and are kept apart here.

Assays:
HLA-A2 [1] = target: T1, HLA-A2 (Homo sapiens, UniProt P04439, D140Y/D185E/D98H/E176V/E277Q/G131W/G231S/I119V/I121R/I166T/I218V/L300P/L318F/N151K/N90K/P208A/P217A/Q86G/Q94H/R138H/R169H/T345S); type: cell-based; conditions: MV-infected WH cells, HLA-A2 ligands, standard LCMS
MB71.5 T cells = assay: PorA specific human proliferation assay with MB71.5 T cells; type: cell-based; conditions: FIG. 17A; region 4 18-mer peptides
Description: (§1) For P.69 Pertactin specific human proliferation assays, 10^5 PBMC were incubated in complete medium at 150 µl/well in the absence or presence of the relevant peptide(s), at 1 or 10 μM at 37° C. in a 5% CO2 atmosphere. For PorA specific human proliferation assays, 10^5 PBMC or 2×10^4 MB71.5 T cells were incubated in complete medium at 150 μl/well in the absence or presence of the relevant peptide(s), peptide pool or PorAs rP1.7-2.4, P1.5-2.10, P1.7.16, P1.19.15, or P1.22.14 at the indicated concentrations at 37° C. in a 5% CO2 atmosphere. At day 4, 100-μl volumes were removed for the cytokine determinations. Then 0.5 μCi (18.5 kBq) ^3H-thymidine (Amersham, USA) was added to the culture 18 hours before harvesting the cells. Determination of CPM and calculation of the results were performed as for the proliferation assay of immune splenocytes. Results are expressed as SI±SD from at least triplicate wells. The region 4 specific T cell line MB71.5 was generated by repetitive in vitro restimulation of MB71 PBMC with 0.5 μg/ml rP1.5-2.1 in complete medium.

[2] = system: Balb/c and C57black/6 mice; assay: Murine immunization with PorA and splenocyte proliferation assay; type: in vivo, mouse; conditions: splenocytes from Balb/c mice immunized with P1.5-1, 2-2; data not shown
PBMC = assay: P.69 Pertactin specific human proliferation assay (in vitro restimulation of PBMC with synthetic peptides); type: cell-based; conditions: PBMC from a panel of healthy adult donors, synthetic standards
Description: as §1
We investigated the immunogenicity of the two Bordetella pertussis P.69 Pertactin epitope regions in humans by in vitro restimulation of PBMC from a panel of healthy adult donors with synthetic standards representing the epitopes.

HLA-A2 [3] = target: T1, HLA-A2; type: cell-based; conditions: human MDDC, HLA-A2 ligandome; from intensity ratio of native and singly labelled epitope
[4] = approach A (subtractive analysis)

LMIDRPYVL [SEQ ID NO: 3]
Abundance (copies/cell) (HLA-A2 [1]; [4]): 150 copies/cell

SGSVQFVPAQNSKSAYTP [S011-25, synthetic 18-mer, P1.5-2.10 region 4 variant]
Proliferation of MB71.5 T cells with autologous PBMC pulsed with synthetic peptides (MB71.5 T cells): proliferated; also recorded: recognizing | Response of splenocytes to region 4 peptides [2]: responded

ASTLWYAESNALSKRLG
immune recognition observed in donors (PBMC): at least 2 donors

PEFSGFSGSVQFVPAQNS [S011-24, synthetic 18-mer, P1.5-2.10 region 4 variant]
Proliferation of MB71.5 T cells with autologous PBMC pulsed with synthetic peptides (MB71.5 T cells): proliferated; also recorded: recognizing | Response of splenocytes to region 4 peptides [2]: responded

GLASFILTI [SEQ ID NO: 6]
Abundance (copies/cell) (HLA-A2 [1]; approach B (isotope labelling)): 150 copies/cell

QLPEATFMV (listed as Measles virus) [SEQ ID NO: 2]
Abundance (copies/cell) (HLA-A2 [1]; [4]): 1,500 copies/cell

VVSEVDIAKAD (listed as Homo sapiens) [SEQ ID NO: 52]
degree of upregulation due to the influenza virus infection (HLA-A2 [3]): 16

KLWESPQEI [SEQ ID NO: 1]
Abundance (copies/cell) (HLA-A2 [1]; [4]): >100,000 copies/cell | Abundance (copies/cell) (HLA-A2 [1]; approach A (subtractive analysis), listed as MV-C84-92): > 100,000 copies/cell

KLWESPQEI [SEQ ID NO: 4]
Abundance (copies/cell) (HLA-A2 [1]; approach B (isotope labelling)): 85 copies/cell
